In patent US9926375B2, “Anti-endoglin antibodies and uses thereof” (Tracon Pharmaceuticals, Inc., priority 2014, dated 2018):

Tests used:
[1] = target: T1, human endoglin (Homo sapiens, UniProt P17813); details: statement in description; cited from earlier work
T1 sequence (P17813 26-658): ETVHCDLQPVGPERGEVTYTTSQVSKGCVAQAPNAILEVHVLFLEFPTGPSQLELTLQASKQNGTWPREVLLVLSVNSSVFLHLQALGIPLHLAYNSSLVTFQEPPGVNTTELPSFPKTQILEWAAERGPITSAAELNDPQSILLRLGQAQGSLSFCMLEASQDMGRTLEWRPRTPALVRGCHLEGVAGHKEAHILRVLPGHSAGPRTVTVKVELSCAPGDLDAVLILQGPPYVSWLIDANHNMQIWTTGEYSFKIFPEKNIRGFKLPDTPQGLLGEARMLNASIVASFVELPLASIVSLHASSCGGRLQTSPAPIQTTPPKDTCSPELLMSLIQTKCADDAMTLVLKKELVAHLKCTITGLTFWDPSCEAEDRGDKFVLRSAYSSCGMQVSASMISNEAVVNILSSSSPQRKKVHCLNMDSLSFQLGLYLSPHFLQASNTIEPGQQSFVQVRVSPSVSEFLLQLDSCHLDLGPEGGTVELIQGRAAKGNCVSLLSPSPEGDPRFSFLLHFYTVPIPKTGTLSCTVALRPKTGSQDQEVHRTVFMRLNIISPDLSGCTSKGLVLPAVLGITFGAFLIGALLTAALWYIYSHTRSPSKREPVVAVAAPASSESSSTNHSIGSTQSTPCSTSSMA

[2] = target: T2, mouse endoglin (Mus musculus, UniProt Q63961); test: Inhibition of mouse BMP binding to mouse endoglin (statement, no method); details: statement in description
T2 sequence (Q63961 27-653): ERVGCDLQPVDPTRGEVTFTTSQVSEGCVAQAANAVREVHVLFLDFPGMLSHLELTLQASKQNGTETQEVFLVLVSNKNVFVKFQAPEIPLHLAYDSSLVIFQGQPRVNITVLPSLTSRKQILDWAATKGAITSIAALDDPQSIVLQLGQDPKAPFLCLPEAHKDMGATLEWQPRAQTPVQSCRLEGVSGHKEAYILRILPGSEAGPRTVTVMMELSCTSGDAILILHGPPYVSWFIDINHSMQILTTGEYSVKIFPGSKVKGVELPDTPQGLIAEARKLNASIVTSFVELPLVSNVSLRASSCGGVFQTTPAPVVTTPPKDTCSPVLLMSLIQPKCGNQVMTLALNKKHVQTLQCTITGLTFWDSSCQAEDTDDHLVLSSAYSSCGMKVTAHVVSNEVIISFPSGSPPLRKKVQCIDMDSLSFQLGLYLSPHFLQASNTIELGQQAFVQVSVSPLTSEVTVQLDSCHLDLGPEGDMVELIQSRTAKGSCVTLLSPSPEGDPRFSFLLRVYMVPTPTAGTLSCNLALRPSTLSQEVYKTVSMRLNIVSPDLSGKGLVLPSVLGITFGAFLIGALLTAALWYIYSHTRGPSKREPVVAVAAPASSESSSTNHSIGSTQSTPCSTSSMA

[3] = tested on: NASH mice; test: Murine model of non-alcoholic steatohepatitis (NASH; STZ and high fat diet); type: in vivo, mouse
Text: The purpose of this study was to examine the protective effects of endoglin antibodies on a murine model of NASH.
NASH was established by a single subcutaneous injection of STZ (Sigma, USA) after birth and feeding with a high fat diet (HFD; CLEA Japan, Japan) ad libitum after 4 weeks of age (day 28±2).
Randomization of mice into 6 groups of 10 mice was done at 9 weeks of age (day 63±2), the day before the start of treatment.
Group 3 (Positive control; Temlisartan Group): Ten NASH mice were be orally administered pure water supplemented with telmisartan at a dose of 10 mg/kg once daily from day 63 to 84.
Group 4 (Antibody M1043: M1043 Group): Ten NASH mice were intravenously administered vehicle supplemented with Antibody M1043 at a dose of 10 mg/kg twice weekly at day 63, 66, 70, 73, 77 and 80.
Group 5 (Antibody TRC105; TRC105 Group): Ten NASH mice were intravenously administered vehicle supplemented with Antibody TRC105 at a dose of 10 mg/kg twice weekly at day 63, 66, 70, 73, 77 and 80.
Group 6 (Antibody TRC205; TRC205 Group): Ten NASH mice were intravenously administered vehicle supplemented with Antibody TRC205 at a dose of 10 mg/kg twice weekly at days 63, 66, 70, 73, 77 and 80.
Mice in all groups were terminated for the following assays at 12 weeks of age.
H&E staining of liver tissue was conducted to estimate NAFLD Activity score.
Total NAS score represents the sum of scores for steatosis, lobular inflammation, and ballooning, and ranges from 0-8. Diagnosis of NASH (or, alternatively, fatty liver not diagnostic of NASH) should be made first, then NAS is used to grade activity. In the reference study, NAS scores of 0-2 occurred in cases largely considered not diagnostic of NASH, scores of 3-4 were evenly divided among those considered not diagnostic, borderline, or positive for NASH. Scores of 5-8 occurred in cases that were largely considered diagnostic of NASH.
Statistical tests were performed using Bonferroni Multiple Comparison Test. P values<0.05 were considered statistically significant.

[4] = tested on: BLM-induced pulmonary fibrosis model mice; test: Bleomycin-induced pulmonary fibrosis model; type: in vivo, mouse; details: vs isotype-control antibody group (isotype-control vs disease control group); day 21; Bonferroni, P<0.05
Protocol: Pathogen-free 7 weeks old female C57BL/6J mice were obtained from Japan SLC, Inc. (Japan). At day 0, 60 mice were induced to develop pulmonary fibrosis by a single intratracheal administration of bleomycin sulphate (BLM, Nippon Kayaku, Japan) in saline at a dose of 3 mg/kg, in a volume of 50 μL per animal using Microsprayer® (Penn-Century, USA).
BLM-induced pulmonary fibrosis model mice were randomized into 4 groups of 12 mice based on the body weight on the day before the start of treatment.
Group 3 (M1043 Antibody): Twelve BLM-induced pulmonary fibrosis model mice were intravenously administered vehicle supplemented with M1043 at a dose of 10 mg/kg twice weekly at day 7, 10, 14 and 17.
Group 4 (TRC105 human/mouse chimeric antibody): Twelve BLM-induced pulmonary fibrosis model mice were intravenously administered vehicle supplemented with TRC105 at a dose of 10 mg/kg twice weekly at day 7, 10, 14 and 17.
Group 5 (BIBF1120 inhibitor for Idiopathic Pulmonary Fibrosis—positive control, Boehringer Ingelheim): Twelve BLM-induced pulmonary fibrosis model mice were orally administered 1% CMC supplemented with BIBF1120 at a dose of 100 mg/kg once daily from day 7 to 21. […]
Histological analysis of lung sections was conducted by practitioners who are not aware of the Group identity. Masson's Trichrome staining is conducted and an Ashcroft Score estimate was determined. […]

[5] = target: T3, mouse endoglin (Mus musculus, UniProt Q63961); test: Competition ELISA of mouse BMP9 against biotinylated M1043 for binding to mouse endoglin; details: 30 μg/ml to 0.004 μg/ml competitor; biotinylated M1043 40 ng/ml
T3 construct: purchased R&D Systems 1320-EN-025
T3 sequence (Q63961 27-581 limits assumed): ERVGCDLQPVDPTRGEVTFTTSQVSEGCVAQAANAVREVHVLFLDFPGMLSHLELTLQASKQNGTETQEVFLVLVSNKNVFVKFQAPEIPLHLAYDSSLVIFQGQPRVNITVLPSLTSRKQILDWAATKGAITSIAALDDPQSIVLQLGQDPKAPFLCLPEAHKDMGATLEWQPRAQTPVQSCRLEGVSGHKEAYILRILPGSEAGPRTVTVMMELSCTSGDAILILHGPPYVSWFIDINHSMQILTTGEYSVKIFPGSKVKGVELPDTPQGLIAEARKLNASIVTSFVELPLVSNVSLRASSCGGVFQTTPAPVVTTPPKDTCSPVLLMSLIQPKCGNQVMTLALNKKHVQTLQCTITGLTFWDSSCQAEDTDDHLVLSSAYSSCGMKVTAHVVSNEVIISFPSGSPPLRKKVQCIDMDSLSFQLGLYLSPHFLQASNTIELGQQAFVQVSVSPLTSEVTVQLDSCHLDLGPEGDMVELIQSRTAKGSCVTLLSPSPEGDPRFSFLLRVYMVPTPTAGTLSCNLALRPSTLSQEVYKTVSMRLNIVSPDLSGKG
Protocol: The ability of mouse BMP9 to compete with the rat antibody M1043 for binding to mouse endoglin was determined by competition ELISA as follows: 200 μg of M1043 antibody was biotinylated with a Lightning-Link biotinylation kit (Innova Biosciences, Cat. No. 704-0010) according to the manufacturers recommendations. Nunc Immuno MaxiSorp 96 well flat bottom plates (Fisher Cat. No. DIS-971-030J) were coated with mouse endoglin (R&D Systems, Cat. No. 1320-EN-025) at 1 μg/ml in PBS overnight at 4° C. The following day the plate was washed three times with PBST before blocking with PBST/3% Marvel at room temperature for 1 hour. A threefold dilution series (30 μg/ml to 0.004 μg/ml) of mouse BMP9 (R&D Systems, Cat. No. 5566-BP-010) or an irrelevant rat IgG1 was mixed with a fixed concentration of biotinylated M1043 (40 ng/ml), added to the plate and incubated for 1 hour at room temperature. Binding of the biotinylated antibody was detected via streptavidin-HRP (Sigma, Cat. No. 55512) and TMB substrate (Sigma, Cat. No. T0440). OD450 nm values were measured on a Dynex MRX TCII plate reader.

[6] = liver gene expression, mean ± SD, Normal-Vehicle 1.0

## TRC105: human murine chimeric IgG1 monoclonal antibody that binds endoglin; VL/VH SEQ ID NOS. 1 and 39
[1]
  Effect on human BMP binding to human endoglin: competitively inhibits human BMP binding
[2]
  Effect on mouse BMP binding to mouse endoglin: dose not prevent the binding of mouse BMP to mouse endoglin
[3]; Bonferroni, P<0.05
  Liver triglyceride contents compared with the NASH-Vehicle group: tended to decrease
  NAS compared with the NASH-Vehicle group: tended to decrease in NAS
  Serum alanine aminotransferase (ALT) levels compared with the NASH-Vehicle group: no significant difference
  Serum alkaline phosphatase (ALP) levels compared with the NASH-Vehicle group: tended to decrease
  Tissue inhibitor of metalloproteinase-1 mRNA expression levels compared with the NASH-Vehicle group: significantly up-regulated
  Tumor necrosis factor-alpha mRNA expression levels compared with the NASH-Vehicle group: significantly up-regulated
[3]; F4/80 immunostaining, macrophage marker
  F4/80-positive signals and cells in liver compared with the NASH-Vehicle group: Lower F4/80-positive signals and positive cells
[3]; [6]
  Alpha-SMA mRNA expression: 1.7 ± 0.7
  MCP-1 mRNA expression: 5.7 ± 4.2
  TIMP-1 mRNA expression: 25.4 ± 23.0
  TNF-α mRNA expression: 12.9 ± 9.5
[3]; mean ± SD
  Liver triglyceride: 31.1 ± 20.3 mg/g liver
  Serum ALP: 291 ± 119 U/L
  Serum ALT: 62 ± 57 U/L
  Serum AST: 204 ± 205 U/L
[3]; mean ± SD, liver sections
  Sirius red-positive area: 0.92 ± 0.20%
[3]; mean ± SD, range 0-8, 10 mg/kg
  NAS (NAFLD Activity score): 4.4 ± 1.4
[3]; score 0 = <5%, 12 weeks of age
  Steatosis score 0, number of mice: 1
[3]; score 0 = None
  Hepatocyte ballooning score 0, number of mice: 3
[3]; score 1 = 5-33%
  Steatosis score 1, number of mice: 6
[3]; score 1 = <2 foci/200x
  Lobular inflammation score 1, number of mice: 1
[3]; score 2 = 2-4 foci/200x
  Lobular inflammation score 2, number of mice: 5
[3]; score 2 = >33-66%
  Steatosis score 2, number of mice: 1
[3]; score 2 = Many cells/prominent ballooning
  Hepatocyte ballooning score 2, number of mice: 5
[3]; score 3 = >4 foci/200x
  Lobular inflammation score 3, number of mice: 2
[4]
  Ashcroft score, comparison between groups: significantly lower

B1: mouse BMP9: mouse BMP9 (R&D Systems, Cat. No. 5566-BP-010), endoglin ligand (protein)
chain: STGASSHCQKTSLRVNFEDIGWDSWIIAPKEYDAYECKGGCFFPLADDVTPTKHAIVQTLVHLKFPTKVGKACCVPTKLSPISILYKDDMGVPTLKYHYEGMSVAECGCR
[5]
  Competition with biotinylated M1043 for binding to mouse endoglin: competed with biotinylated M1043 for binding to mouse endoglin
